Data on nine compounds can be found in patent US9018370B2, “Derivatives of uridine phosphate and their uses in protein binding assays” (King's College London of Strand, priority 2009, dated 2015).

Molecules are shown by their SMILES.

For data set [1] the following is noted: Lakowicz, Principles of Fluorescence Spectroscopy; cited from earlier work.
Data set [2] is described as follows: Quantum yield determination of nucleotide derivatives. Format: physicochemical. Particulars: for Quantum yield of reference compounds determined with this protocol: in H2O; for Q.Y.: in water. On the procedure: Nucleotide derivatives were serially diluted in H2O (10, 20, 30, 40 and 50 μM for absorbance measurements, and 0.2, 0.4, 0.6, 0.8, 1 μM for fluorescence measurements), and UV absorbance and fluorescence emission (with λmax absorbance=λem fluorescence) were recorded for all samples. To determine quantum yields, for each absorbance and fluorescence spectrum the area under the curve (AUC) was calculated by numerical integration, applying the mid-point rule. For each compound, AUCabs and AUCem were then plotted over compound concentration according to AUCabs=A×[conc]+B and AUCem=A′×[conc]+B′. From these linear plots, the gradients A and A′ were extracted, and for each compound the specific quantum yield φs, under these experimental conditions, was calculated as the ratio A′/A. Quantum yields determined with this protocol for two reference compounds, 2-aminopyridine and L-tryptophan (2-aminopyridine: 0.60; L-tryptophan: 0.14) were in exact agreement with literature values. The quantum yields for reference compounds were used to calculate the general quantum yield φg for each nucleotide analogue, according to φg=φref×(A′/A)/(A′/A)ref.
Fluorescent uracil nucleosides and (sugar-)nucleotides can be obtained by connecting a known chromophore/fluorophore via an electronically nonconjugating linker to the natural uracil base (Sinkeldam et al. Chem. Rev. 2010, 110, 2579-2619). The photophysical features of the resulting nucleoside/(sugar-)nucleotide analogue are usually very similar to that of the parent fluorophore (Sinkeldam et al. Chem. Rev. 2010, 110, 2579-2619). In contrast, extending the uracil by electronically conjugating the base to additional aromatic moieties typically generates a new chromophore with unique, and somewhat unpredictable, photophysical characteristics (Sinkeldam et al. Chem. Rev. 2010, 110, 2579-2619). To precisely measure the intensity of the fluorescence emitted by the brightest fluorophores described above, we determined their quantum yield. These measurements were performed in water following the procedure reported by Nighswander-Remper and the results are shown in Table B below. Quantum yield determinations confirmed that 2p and 2q display the highest fluorescence and are 10-fold brighter than any other nucleotide analogues with a compact aryl- or heteroaryl substituent in position 5 that have been reported to date (Sinkeldam et al. Chem. Rev. 2010, 110, 2579-2619). That 2p and 2q absorb and fluoresce at long wavelength is an attractive feature, which makes these fluorophores suitable for analyses in biological environments. Additionally, we found the intensity of the fluorescence emission is conserved for UDP and UTP analogues, thereby providing attractive fluorescence probes candidates for fluorimetric assays.

The target of another data set is T1, Ggta1 (Bos taurus, UniProt P14769).
T1 construct: made in house
In words: Variation in fluorescence of 3d and analogues upon incubation with Ggta1. Particulars: various concentrations of Ggta1. The data set is classed as binding, B. taurus. On the procedure: (§1) Fluorescence intensity measurements with 3d were carried out in black NUNC F96 MicroWell polystyrene plates on a BMG labtech PolarStar microplate reader equipped with a 350±5 nm excitation filter and a 430±5 nm emission filter. The number of flashes per wells was set to 50 (gain: 2240; position delay: 0.2 s). Prior to readings, plates were incubated, with shaking, for 10 min at 30° C. (double orbital, shaking width 4 mm, 10 seconds). Results were visualised with BMG labtech data analysis software Mars 1.10 and analysed with GraFit version 5.0.10.
(§2) Samples were pipetted into the requisite wells of a black NUNC 96-well plate as shown in tables E1-E3, at the end of the description. Key: B—Tris/HCl buffer (50 mM, pH 7; 40 μL); F—fluorophore 3d (200 nM in Tris/HCl buffer; 40 μL); M—MnCl2 (10 mM in Tris/HCl buffer; […]); E—galactosyltransferase (in Tris/HCl buffer; 40 μL); I—inhibitor (in Tris/HCl buffer; 40 μL). Total volume/well: 200 μL. All experiments were carried out in triplicate, unless indicated otherwise.
We also carried out an experiment on 3d (numbered 18e in FIG. 4) and different analogues of 3d, namely the nucleoside 5h, the nucleotide 6r and nucleoside diphosphate 22d, to show their variation in fluorescence on binding to Ggta1.
The synthesis of 5h, 6r and 22d are shown below. The protocol for the microplate/fluorescence experiments was the same as in Example 2.

Data set [3] can be described thus: Absorbance and fluorescence spectra of 5-R-UMP analogues. Format: physicochemical. To be noted: for λmax: absorbance. Here is the method: UV absorbance spectra were recorded on a PerkinElmer Lambda 25 UV-Vis spectrometer at ambient temperature in FarUV quartz cells (path length 1.0 cm). Fluorescence spectra were recorded on a PerkinElmer LS-45 spectrometer at ambient temperature in a quartz micro fluorescence cell (path length 1.0 cm).

The nature of data set [4]: Influence of microenvironment (solvent) on fluorescence of 2q′. The data set is classed as physicochemical. On the procedure: Fluorescence intensity measurements were performed in NUNC F96 MicroWell polystyrene plates on a BMG labtech PolarStar plate reader equipped with a 350±5 nm absorbance filter and with a 430±5 nm emission filter. 10 μM solutions of 2q′ were prepared in HPLC grade water, acetonitrile and isopropanol. Sample assays with various solvent mixtures were incubated during 2 minutes at 30° C. prior to fluorescence measurement. Data were analysed with the help of GraFit version 5.0.10.
After identifying intense 5-arylated UMP fluorophores and understanding the origin of their fluorescence we investigated the influence of the microenvironment on the fluorescence signal. In order to generate a variety of microenvironments, we prepared 200 nM solutions of 5-(5-formyl-2-thiophene)-uridine 2q′ (the nucleoside analogue of 2q) in solvents varying in polarity index: (P): water (P=9), acetonitrile (MeCN, P=5.8) and isopropanol (IPA, P=3.9). We subsequently recorded absorbance and fluorescence signals for these three solutions (see FIG. 6).

The target in data set [5] is T2, B. taurus α-1,3-GalT (Bos taurus, UniProt P14769).
T2 construct: made in house
In words: Microplate fluorescence titration / ligand-displacement assay with fluorophore 3d. The data set is classed as binding. On the procedure:
The fluorescence emission of a given fluorophore is influenced by its microenvironment, although different fluorophores vary their fluorescence emissions to different extents on changing microenvironment.
as §1, §2

The nature of data set [6]: Quantum yield determination of UDP-Gal derivatives 3a-d. Format: physicochemical.
Experimental: To determine quantum yields, for each absorbance and fluorescence spectrum the area under the curve (AUC) was calculated by numerical integration, applying the mid-point rule. For each compound, AUCabs and AUCfluo were then plotted over compound concentration according to AUCabs=A×[conc]+B (equation 1) and AUCfluo=A′×[conc]+B′ (equation 2). […] The quantum yields for reference compounds were used to calculate the general quantum yield φg for each compound 3a-d, according to φg=φref×(A′/A)/(A′/A)ref.
Data set [7] deals with T2, B. taurus α-1,3-GalT. In words: Donor kinetics of UDP-Gal derivatives with GalT, HPLC. The data set is classed as biochemical. To be noted: MnCl2 20 mM, MOPS pH 7.2, 37° C. On the procedure: J. Am. Chem. Soc. 122, 261-1269 (2000); Rich, J. R.; Szpacenko, A.; Palcic, M. M. & Bundle, D. R. Glycosyltransferase-Catalyzed Synthesis of Thiooligosaccharides. Angew. Chem. Int. Ed. […] ChemBioChem 9, 1632-1640 (2008). […] (total volume 100 μL, all concentrations are final concentrations). The reactions were stopped by cooling in dry ice. Samples were analysed immediately by HPLC on a PerkinElmer Series 200 machine equipped with a Supelcosil LC-18-T column (5 μm, 25 cm×4.6 mm), a column oven (set to 30° C.), and a diode array detector. Each sample (injection volume 40 μL) was eluted at 1.5 mL/min with a gradient of methanol (10-30%) against 0.5 M phosphate buffer (adjusted to pH 8 with triethylamine). […] Km and vmax values were determined by fitting data points to a Michaelis-Menten curve using GraFit 5.0.10.

For the next data set, the system named is β4GalT (H. pylori). In words: Titration of 3d with other GTs. The data set is classed as binding. On the procedure: as §1, §2
(§3) To assess the generality of this new GT assay principle, we next repeated the above experiments with another four GalTs, including mammalian and bacterial enzymes with different acceptor specificities and reaction mechanisms. […] The experimental protocol was the same as in Example 2. The amino acid sequences for four GalTs used in the experiment, i.e. LgtC (N. meningitidis), Ggta1 (B. taurus), GTB (H. sapiens) and AA(Gly)B GTB mutant (H. sapiens) or references where the sequence listings can be found are given above. The amino acid sequence for β4GalT (H. pylori) can be found above and in the following reference: Endo, T., Koizumi, S., Tabata, K. & Ozaki, A. Glycobiology 10, 809-813 (2000).

The test system of data set [8] is AA(Gly)B GTB mutant (H. sapiens). Put plainly: Titration of 3d with other GTs. Format: binding. On the procedure: as §1, §2, §3
Another data set deals with LgtC (N. meningitidis). In words: Titration of 3d with other GTs. The data set is classed as binding. Here is the method: as §1, §2, §3
A further data set relates to GTB (H. sapiens). In words: Titration of 3d with other GTs. Format: binding. On the procedure: as §1, §2, §3
The next data set relates to a-1.4-GalT. Put plainly: Titration of C-glycosidic fluorophore 2 with GalT and competition with ligands. Format: binding.
Data set [9] deals with T3, Streptococcus thermophilus UDP-Gal 4′-epimerase (GalE) (Streptococcus thermophilus, UniProt P21977).
T3 construct: purchased Calbiochem
Put plainly: GalE-catalysed conversion of UDP-Gal into UDP-Glc, HPLC assay. Format: biochemical. On the procedure:
The reactions were stopped by cooling in dry ice. […] Km and vmax values were determined by fitting data points to a Michaelis-Menten curve using GraFit 5.0.10. […] All experiments were carried out in triplicate.

T2 sequence (P14769 whole entry): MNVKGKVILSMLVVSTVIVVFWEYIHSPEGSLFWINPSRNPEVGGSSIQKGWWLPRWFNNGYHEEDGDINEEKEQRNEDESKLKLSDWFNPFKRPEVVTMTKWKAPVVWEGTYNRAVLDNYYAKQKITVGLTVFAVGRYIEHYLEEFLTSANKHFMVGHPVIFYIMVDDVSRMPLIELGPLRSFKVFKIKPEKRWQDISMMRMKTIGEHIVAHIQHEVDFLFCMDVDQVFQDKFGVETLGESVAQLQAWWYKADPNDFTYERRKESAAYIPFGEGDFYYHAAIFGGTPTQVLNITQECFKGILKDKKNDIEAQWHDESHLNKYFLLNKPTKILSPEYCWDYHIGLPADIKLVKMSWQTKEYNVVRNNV
T1 sequence (P14769 whole entry): as above
T3 sequence (P21977 whole entry): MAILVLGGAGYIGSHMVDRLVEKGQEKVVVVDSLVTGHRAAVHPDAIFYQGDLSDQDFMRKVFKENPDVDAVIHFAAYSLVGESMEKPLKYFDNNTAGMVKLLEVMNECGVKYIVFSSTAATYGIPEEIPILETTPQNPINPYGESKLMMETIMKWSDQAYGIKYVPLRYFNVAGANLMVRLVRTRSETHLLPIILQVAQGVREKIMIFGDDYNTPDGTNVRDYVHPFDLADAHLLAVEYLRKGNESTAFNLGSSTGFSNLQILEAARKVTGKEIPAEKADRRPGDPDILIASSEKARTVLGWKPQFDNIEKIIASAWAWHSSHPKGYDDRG

For the compound `Nc1ccccn1` [2-aminopyridine, reference compound], in [1], the “Quantum yield, literature values of reference compounds” value is 0.60. The “Quantum yield of reference compounds determined with this protocol” value in data set [2] turned out to be 0.60.
For `O=Cc1ccc(-c2cn([C@@H]3O[C@H](COP(=O)(O)O)[C@@H](O)[C@H]3O)c(=O)[nH]c2=O)s1` [2q, 5-(5-Formylthien-2-yl)-uridine-5′-monophosphate], the “Variation in fluorescence on binding to Ggta1” value (from here on “Variation in fluorescence”) at Ggta1 is “varied their intensity of luminescence with Ggta1”. In data set [2], the “Brightness relative to any other reported 5-aryl/heteroaryl nucleotide analogues” value was determined as 10 fold and the Q.Y. is recorded as 0.26. The “Fluo Intensity at 100 μM” value in data set [3] (100 μM) is reported as over 650 a.u. Also, the λmax in data set [3] stood at 351 nm. Further, the Emmax in data set [3] (fluorescence emission) turned out to be 434 nm.
In the case of `O=Cc1ccc(-c2cn([C@@H]3O[C@H](CO)[C@@H](O)[C@H]3O)c(=O)[nH]c2=O)s1` [2q′, 5-(5-Formylthien-2-yl)-uridine], in [4] (200 nM solutions), the “Fluorescence in water relative to MeCN” value is recorded as 20 fold. In addition, in data set [4] (water, MeCN, IPA), the “Absorbance on change of solvent” value is on record as “unaffected by a change in microenvironment”.
For the compound `O=Cc1ccc(-c2cn([C@@H]3O[C@H](COP(=O)(O)OP(=O)(O)O[C@H]4O[C@H](CO)[C@H](O)[C@H](O)[C@H]4O)[C@@H](O)[C@H]3O)c(=O)[nH]c2=O)s1` [3d, 5-(5-Formylthien-2-yl)-UDP-α-D-galactose], the “Variation in fluorescence” value on Ggta1 is recorded as “varied their intensity of luminescence with Ggta1”. For the same compound, the “Fluorescence of 3d upon titration with enzyme” value is recorded as “little or no fluorescence quenching” on B. taurus α-1,3-GalT [5] (in the absence of Mn^2+) and “quenched in the presence of enzyme in a concentration-dependent manner” on B. taurus α-1,3-GalT [5] (in the presence of MnCl2, 200 nM ligand, Tris pH 7). For the same compound, the “Fluorescence (in words)” value in data set [6] is given as “much more strongly fluorescent”. The “Quantum yield relative to that of 3a” value in data set [6] is 25 fold. Further, in data set [6], the “Quantum yield relative to that of the parent UDP-Gal” value was about 6000 fold. In addition, the Quantum yield in data set [6] (in H2O) came out at 0.26. Besides, the Km at B. taurus α-1,3-GalT [7] was determined as 13 ± 1 µM. Also, at B. taurus α-1,3-GalT [7], the kcat was determined as 0.0019 s⁻¹. In addition, the “Fluorescence of 3d with enzyme” value (in the data set with β4GalT (H. pylori); in data set [8]; in the data set on LgtC (N. meningitidis); in the data set with GTB (H. sapiens)) was “strong fluorescence quenching effect” throughout.
With `O=Cc1ccc(-c2cn([C@@H]3O[C@H](COP(=O)(O)OP(=O)(O)O)[C@@H](O)[C@H]3O)c(=O)[nH]c2=O)s1` [22d, 5-(5-Formylthien-2-yl)-UDP], the “Variation in fluorescence” value at Ggta1 is listed as “varied their intensity of luminescence with Ggta1”.
As to `N[C@@H](Cc1c[nH]c2ccccc12)C(=O)O` [L-tryptophan, reference compound], the “Quantum yield, literature values of reference compounds” value in data set [1] is on record as 0.14. In data set [2], the “Quantum yield of reference compounds determined with this protocol” value came out at 0.14.
On to `O=c1ccn([C@@H]2O[C@H](COP(=O)(O)OP(=O)(O)O)[C@@H](O)[C@H]2O)c(=O)[nH]1` [UDP, reference compound], for which the “Fluorescence of 3d upon titration with competitive ligand” value at B. taurus α-1,3-GalT [5] (3d and α-1.3-GalT present) is listed as “restored”. In the data set on a-1.4-GalT, the “Reversal of fluorescence quenching of 2 by titration with ligand” value is reported as “reversed”.
Compound `O=c1ccn([C@@H]2O[C@H](COP(=O)(O)O)[C@@H](O)[C@H]2O)c(=O)[nH]1` [UMP, reference compound] showed a Q.Y. in data set [2] of 5e-05. Further, the λmax in [3] is on record as 262 nm. In the data set with a-1.4-GalT, the “Reversal of fluorescence quenching of 2 by titration with ligand” value is reported as “to a lesser extent”.
`O=Cc1ccc(-c2cn([C@@H]3O[C@H](COP(=O)(O)OP(=O)(O)CC[C@H]4O[C@H](CO)[C@H](O)[C@H](O)[C@H]4O)[C@@H](O)[C@H]3O)c(=O)[nH]c2=O)s1` [compound 2, Bis(sodium) [2-(α-D-galactopyranosyl)-ethylphosphono]-5-(5-formylthien-2-yl)uridin-5′-yl phosphate]: the Ki in data set [9] (Dixon plot, 232 μM UDP-Gal) amounted to 426 µM. The “Use as substrate by GalE” value in data set [9] (co-incubation, HPLC) is on record as “does not use 2 as a substrate”. Besides, the “Fluorescence of 2 upon titration with GalT” value in the data set with a-1.4-GalT is reported as “quenched upon titration with a bacterial GalT”.

In general, Km refers to the concentration of substrate that gives half-maximal velocity. The term kcat denotes the number of substrate molecules converted per active site and unit of time at saturation. What is called Ki is the dissociation constant of the complex between target and ligand, obtained from inhibition or displacement. A high value points to weaker binding.
